The text below walks through data of US20260226073A1 (AURIGENE ONCOLOGY LIMITED, priority 2023, published 2026).

pEC50, pIC50: −log10 of the molar value. Some results are limits rather than exact numbers.

In assay [1] the test system is NFAT signaling pathway in Jurkat NFAT reporter cells. Put plainly: Jurkat NFAT reporter assay. The class given is cell-based. The note with it: Homo sapiens, 30 min with compound, then soluble anti-human CD3/CD28 antibody for 6 hours, luciferase readout, read-out: EC50 (Group). In short, it runs like this:
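Results are expressed as fold change relative to stimulated, inhibitor-free cells. Stimulation was 6 h with soluble anti-human CD3/CD28 antibody after a 30-min exposure of 1×10^5 NFAT-RE luciferase Jurkat reporter cells per well to the Cbl-b inhibitor; signal read by Bio-Glo bioluminescence.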
Background: In a reporter assay the amount or activity of a reporter protein is the signal.

For assay [2], the target named is T1, human recombinant CBL-b (human Biotin CBL-b recombinant protein a.a. 39-426) (Homo sapiens, UniProt Q13191).
T1 construct: human Biotin CBL-b recombinant protein a.a; 39-426; Biotin (biotinylated); made in house
T1 sequence (Q13191 39-426): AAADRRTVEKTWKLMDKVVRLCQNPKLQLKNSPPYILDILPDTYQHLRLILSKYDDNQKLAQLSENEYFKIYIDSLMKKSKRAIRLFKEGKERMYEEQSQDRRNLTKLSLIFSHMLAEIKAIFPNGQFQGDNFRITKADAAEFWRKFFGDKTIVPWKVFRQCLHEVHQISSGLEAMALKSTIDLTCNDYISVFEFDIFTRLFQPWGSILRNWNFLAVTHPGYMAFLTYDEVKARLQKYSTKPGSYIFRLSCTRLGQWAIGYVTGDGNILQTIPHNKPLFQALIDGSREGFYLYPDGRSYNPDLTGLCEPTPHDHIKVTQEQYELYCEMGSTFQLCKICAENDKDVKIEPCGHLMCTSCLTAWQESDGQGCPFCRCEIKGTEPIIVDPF
Put plainly: Biochemical assay for CBL-b inhibition (ligand displacement TR-FRET). Conditions: 50 nM CBL-b, 0.3 μM Bodipy FL-Probe, read-out: IC50 (CBL-b inhibition, group). Type of assay: binding. In short, it runs like this:
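Ligand-displacement TR-FRET: 0.3 μM Bodipy FL probe competes with compound for 50 nM biotin-CBL-b (aa 39-426) after a 60 min RT compound pre-incubation; terbium-streptavidin detection, 60 min each step. Dose-response sigmoidal fitting gave IC50 and % maximum inhibition.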
In general terms: TR-FRET usually uses a lanthanide donor and a delayed reading to cut background.

As a reminder, the pEC50 is the negative decadic logarithm of the EC50, by convention in mol/L. A word on the pIC50: it is the IC50 on a negative log10 scale, so that one unit is a factor of ten.

With `Cc1cc(CNCC2CC2)cc(N2Cc3ccc(-c4ccc(F)cc4-c4nncn4C)cc3C2=O)n1` [Compound 127, 2-(4-(((Cyclopropylmethyl)amino)methyl)-6-methylpyridin-2-yl)-6-(4-fluoro-2-(4-methyl-4H-1,2,4-triazol-3-yl)phenyl)isoindolin-1-one], the pEC50 in assay [1] is > 6.52. The pIC50 in assay [2] was > 7.10.

`Cc1cc([C@H](C)NC2CCCC2)cc(N2Cc3ccc(-c4ccc(Cl)cc4-c4nncn4C)cc3C2=O)n1` (single isomer, unassigned) [Compound 125, 6-(4-Chloro-2-(4-methyl-4H-1,2,4-triazol-3-yl)phenyl)-2-(4-(1-(cyclopentyl-amino)ethyl)-6-methylpyridin-2-yl)isoindolin-1-one]: the pEC50 in assay [1] was > 6.52. Further, the pIC50 in assay [2] is > 7.10.

With `CC(NCC1CC1)c1cc(Cl)nc(N2Cc3ccc(C4(Cc5nncn5C)CC(C#N)C4)cc3C2=O)c1` (stereo not drawn) [Compound 225, 3-(2-(6-Chloro-4-(1-((cyclopropylmethyl)amino)ethyl)pyridin-2-yl)-3-oxoiso-indolin-5-yl)-3-((4-methyl-4H-1,2,4-triazol-3-yl)methyl)cyclobutane-1-carbonitrile], the negative logarithm of the EC50 (pEC50) in assay [1] was > 6.52. For the same compound, in assay [2], the pIC50 is > 7.10.

Consider `C[C@H](NCc1cscn1)c1cc(Cl)nc(N2Cc3ccc(C4(Cc5nncn5C)COC4)cc3C2=O)c1` (single isomer, unassigned) [Compound 218], for which the pEC50 in assay [1] was 6.00 to 6.52. Besides, the negative logarithm of the IC50 (pIC50) in assay [2] was > 7.10.

Take `Cn1cnnc1CC1(c2ccc3c(c2)C(=O)N(c2cc(CNc4nccs4)cc(Cl)n2)C3)COC1` [Compound 237]: the pEC50 in assay [1] is 5.00 to 6.00. The negative-log IC50 (pIC50) in assay [2] is > 7.10.

For `C[C@H](NCc1cc(Cl)nc(N2Cc3ccc(-c4ccc(Cl)cc4-c4nncn4C)cc3C2=O)c1)C1CC1` (single isomer, unassigned) [Compound 109, 6-(4-Chloro-2-(4-methyl-4H-1,2,4-triazol-3-yl)phenyl)-2-(6-chloro-4-(((1-cyclo-propylethyl)amino)methyl)pyridin-2-yl)isoindolin-1-one], the negative logarithm of the EC50 (pEC50) in assay [1] is > 6.52. For the same compound, the pIC50 in assay [2] was > 7.10.

Regarding `CC(NCC1CCC1)c1cc(Cl)nc(N2Cc3ccc(C4(Cc5nncn5C)COC4)cc3C2=O)c1` (single isomer, unassigned) [Compound 213, 2-(6-Chloro-4-(1-((cyclobutylmethyl)amino)ethyl)pyridin-2-yl)-6-(3-((4-methyl-4H-1,2,4-triazol-3-yl)methyl)oxetan-3-yl)isoindolin-1-one], in assay [1], the pEC50 was > 6.52. The pIC50 in assay [2] is > 7.10.

Regarding `C[C@H](Cc1nncn1C)c1ccc2c(c1)C(=O)N(c1cc(CNCCC(F)(F)F)cc(Cl)n1)C2` (single isomer, unassigned) [Compound 164], the negative-log EC50 (pEC50) in assay [1] is 5.00 to 6.00. For the same compound, in assay [2], the pIC50 is > 7.10.

For `C[C@@H](NCC1CC(F)(F)C1)c1cc(Cl)nc(N2Cc3ccc(C4(Cc5nncn5C)COC4)cc3C2=O)c1` (single isomer, unassigned) [Compound 221], in assay [1], the pEC50 was > 6.52. In addition, the negative logarithm of the IC50 (pIC50) in assay [2] was > 7.10.

For `C[C@H]1CCN(Cc2cc(N3Cc4ccc(C5(Cc6nncn6C)COC5)cc4C3=O)nc(C(F)(F)F)c2)C1` [Compound 34, (S)-6-(3-((4-Methyl-4H-1,2,4-triazol-3-yl)methyl)oxetan-3-yl)-2-(4-((3-methyl-pyrrolidin-1-yl)methyl)-6-(trifluoromethyl)pyridin-2-yl)isoindolin-1-one], the pEC50 in assay [1] is 6.00 to 6.52. In addition, in assay [2], the negative-log IC50 (pIC50) was 6.52 to 7.10.

`Cn1cnnc1CC1(c2ccc3c(c2)C(=O)N(c2cc(CN4CCCCCC4)cc(Cl)n2)C3)COC1` [Compound 157]: the pEC50 in assay [1] is > 6.52. Besides, the pIC50 in assay [2] is > 7.10.

Turning to `CC(NCC1CC1(F)F)c1cc(Cl)nc(N2Cc3ccc(C4(Cc5nncn5C)COC4)cc3C2=O)c1` (single isomer, unassigned) [Compound 206, 2-(6-Chloro-4-(1-(((2,2-difluorocyclopropyl)methyl)amino)ethyl)pyridin-2-yl)-6-(3-((4-methyl-4H-1,2,4-triazol-3-yl)methyl)oxetan-3-yl)isoindolin-1-one], the negative logarithm of the EC50 (pEC50) in assay [1] is > 6.52. In assay [2], the negative-log IC50 (pIC50) is > 7.10.

`C[C@H]1CCN(Cc2cc(Cl)nc(N3Cc4ccc(C5(Cc6nncn6C)COC5)cc4C3=O)c2)C1` [Compound 67, (S)-2-(6-Chloro-4-((3-methylpyrrolidin-1-yl)methyl)pyridin-2-yl)-6-(3-((4-methyl-4H-1,2,4-triazol-3-yl)methyl)oxetan-3-yl)isoindolin-1-one]: in assay [1], the negative logarithm of the EC50 (pEC50) was 6.00 to 6.52. Also, in assay [2], the pIC50 is 6.52 to 7.10.

Regarding `Cn1cnnc1CC1(c2ccc3c(c2)C(=O)N(c2cc(CNCC4CCC4)cc(C(F)(F)F)n2)C3)COC1` [Compound 162, 2-(4-(((Cyclobutylmethyl)amino)methyl)-6-(trifluoromethyl)pyridin-2-yl)-6-(3-((4-methyl-4H-1,2,4-triazol-3-yl)methyl)oxetan-3-yl)isoindolin-1-one], the negative-log EC50 (pEC50) in assay [1] was > 6.52. The negative logarithm of the IC50 (pIC50) in assay [2] was > 7.10.

Consider `C[C@H](N[C@H](C)C1CC1)c1cc(Cl)nc(N2Cc3ccc(C4(Cc5nncn5C)COC4)cc3C2=O)c1` (single isomer, unassigned) [Compound 240], for which the pEC50 in assay [1] was > 6.52. For the same compound, the negative-log IC50 (pIC50) in assay [2] was > 7.10.

As for `Cc1cc(CNCC2(CO)CCC2)cc(N2Cc3ccc(-c4ccc(F)cc4-c4nncn4C)cc3C2=O)n1` [Compound 308], in assay [1], the pEC50 was 5.00 to 6.00. In assay [2], the negative-log IC50 (pIC50) is > 7.10.

As for `Cn1cnnc1CC1(c2ccc3c(c2)C(=O)N(c2cc(CN4CCC[C@H](O)C4)cc(C(F)(F)F)n2)C3)COC1` [Compound 30, (S)-2-(4-((3-Hydroxypiperidin-1-yl)methyl)-6-(trifluoromethyl)pyridin-2-yl)-6-(3-((4-methyl-4H-1,2,4-triazol-3-yl)methyl)oxetan-3-yl)isoindolin-1-one], in assay [1], the negative logarithm of the EC50 (pEC50) is 5.00 to 6.00. Further, the negative logarithm of the IC50 (pIC50) in assay [2] was 5.30 to 6.52.

As for `Cc1cc(CNCC2CC2)cc(N2Cc3ccc(-c4c(F)cc(F)cc4-c4nncn4C)cc3C2=O)n1` [Compound 262], the negative logarithm of the EC50 (pEC50) in assay [1] was > 6.52. Besides, the pIC50 in assay [2] was > 7.10.

`CC(NCC1CCC1)c1cc(Cl)nc(N2Cc3ccc(-c4ccc(Cl)cc4-c4nncn4C)cc3C2=O)c1` (stereo not drawn) [Compound 107, 6-(4-Chloro-2-(4-methyl-4H-1,2,4-triazol-3-yl)phenyl)-2-(6-chloro-4-(1-((cyclo-butylmethyl)amino)ethyl)pyridin-2-yl)isoindolin-1-one]: in assay [1], the pEC50 was > 6.52. The pIC50 in assay [2] was > 7.10.

Turning to `C[C@H]1CCCN(Cc2cc(C3CC3)nc(N3Cc4ccc(C5(Cc6nncn6C)COC5)cc4C3=O)c2)C1` [Compound 73, (S)-2-(6-Cyclopropyl-4-((3-methylpiperidin-1-yl)methyl)pyridin-2-yl)-6-(3-((4-methyl-4H-1,2,4-triazol-3-yl)methyl)oxetan-3-yl)isoindolin-1-one], the pEC50 in assay [1] is 5.00 to 6.00. Further, the negative-log IC50 (pIC50) in assay [2] is 6.52 to 7.10.

Turning to `C[C@H](N[C@@H](C)C1CC1)c1cc(Cl)nc(N2Cc3ccc(C4(Cc5nncn5C)COC4)cc3C2=O)c1` (single isomer, unassigned) [Compound 246], the negative logarithm of the EC50 (pEC50) in assay [1] was > 6.52. Also, the negative logarithm of the IC50 (pIC50) in assay [2] is > 7.10.

As to `C[C@H]1CCCN(Cc2cc(N3CCCCC3)cc(N3Cc4ccc(C5(Cc6nncn6C)COC5)cc4C3=O)c2)C1` [Compound 14, (S)-6-(3-((4-Methyl-4H-1,2,4-triazol-3-yl)methyl)oxetan-3-yl)-2-(3-((3-methyl-piperidin-1-yl)methyl)-5-(piperidin-1-yl)phenyl)isoindolin-1-one], the negative logarithm of the EC50 (pEC50) in assay [1] was 5.00 to 6.00. Further, the pIC50 in assay [2] was 5.30 to 6.52.

Take `COCCNCc1cc(C)nc(N2Cc3ccc(-c4ccc(F)cc4-c4nncn4C)cc3C2=O)c1` [Compound 302, 6-(4-Fluoro-2-(4-methyl-4H-1,2,4-triazol-3-yl)phenyl)-2-(4-(((2-methoxyethyl)-amino)methyl)-6-methylpyridin-2-yl)isoindolin-1-one]: the pEC50 in assay [1] was 6.00 to 6.52. Further, the negative logarithm of the IC50 (pIC50) in assay [2] was > 7.10.

Turning to `Cc1cc(CNCC(C)(C)C)cc(N2Cc3ccc(-c4ccc(F)cc4-c4nncn4C)cc3C2=O)n1` [Compound 303], the negative-log EC50 (pEC50) in assay [1] was 6.00 to 6.52. In addition, the pIC50 in assay [2] was > 7.10.

As for `Cn1cnnc1-c1cc(Cl)ccc1-c1ccc2c(c1)C(=O)N(c1cc(CNC3CCCC3)cc(Cl)n1)C2` [Compound 106, 6-(4-Chloro-2-(4-methyl-4H-1,2,4-triazol-3-yl)phenyl)-2-(6-chloro-4-((cyclo-pentylamino)methyl)pyridin-2-yl)isoindolin-1-one], in assay [1], the pEC50 was 6.00 to 6.52. The pIC50 in assay [2] was 6.52 to 7.10.

`C[C@@H]1CN(Cc2cc(N3Cc4ccc(C5(Cc6nncn6C)COC5)cc4C3=O)nc(C(F)(F)F)c2)CCO1` [Compound 46, (R)-6-(3-((4-Methyl-4H-1,2,4-triazol-3-yl)methyl)oxetan-3-yl)-2-(4-((2-methyl-morpholino)methyl)-6-(trifluoromethyl)pyridin-2-yl)isoindolin-1-one]: the pEC50 in assay [1] is 5.00 to 6.00. In addition, in assay [2], the pIC50 was 5.30 to 6.52.

Regarding `Cn1cnnc1CC1(c2ccc3c(c2)C(=O)N(c2cc(CNC4(C)CCC4)cc(C(F)(F)F)n2)C3)COC1` [Compound 88, 6-(3-((4-Methyl-4H-1,2,4-triazol-3-yl)methyl)oxetan-3-yl)-2-(4-(((1-methyl-cyclobutyl)amino)methyl)-6-(trifluoromethyl)pyridin-2-yl)isoindolin-1-one], the negative logarithm of the EC50 (pEC50) in assay [1] is 6.00 to 6.52. Moreover, in assay [2], the negative logarithm of the IC50 (pIC50) is 5.30 to 6.52.
